Experimental data published in the NIST ThermoML archive (doi:10.1016/j.fluid.2010.01.023).
Values joined by “and” are separate entries in the source; they are usually repeats but may differ in a detail not shown here. Equal values may be shown once.

Assay: xn = mol fraction of the nth substance listed
Details: Fluid (supercritical or subcritical phases), quasistatic thermogram and barogram, x2 = 0.7393

N [ammonia] + O
Details	thermal pressure coefficient
330.88 K, Mass density=540.25 kg/m3	7 kPa/K
349.52 K, Mass density=540.25 kg/m3	12 kPa/K
366.71 K, Mass density=540.25 kg/m3	17 kPa/K
397.73 K, Mass density=540.25 kg/m3	32 kPa/K
402.59 K, Mass density=671.23 kg/m3	30 kPa/K
407.37 K, Mass density=649.65 kg/m3	37 kPa/K
407.57 K, Mass density=649.65 kg/m3	37 kPa/K
407.79 K, Mass density=649.65 kg/m3	40 kPa/K
421.43 K, Mass density=540.25 kg/m3	43 kPa/K
446.89 K, Mass density=540.25 kg/m3	58 kPa/K
473.33 K, Mass density=540.25 kg/m3	77 kPa/K
478.28 K, Mass density=671.23 kg/m3	86 kPa/K
485.04 K, Mass density=671.23 kg/m3	86 kPa/K
492.71 K, Mass density=671.23 kg/m3	87 kPa/K
494.07 K, Mass density=540.25 kg/m3	97 kPa/K
498.62 K, Mass density=671.23 kg/m3	97 kPa/K
507.04 K, Mass density=671.23 kg/m3	118 kPa/K
508.36 K, Mass density=671.23 kg/m3	941 kPa/K
509.3 K, Mass density=649.65 kg/m3	106 kPa/K
509.3 K, Mass density=671.23 kg/m3	935 kPa/K
513.52 K, Mass density=671.23 kg/m3	976 kPa/K
514.53 K, Mass density=649.65 kg/m3	119 kPa/K
516.77 K, Mass density=540.25 kg/m3	116 kPa/K
517.23 K, Mass density=540.25 kg/m3	119 kPa/K
519.21 K, Mass density=649.65 kg/m3	137 kPa/K
519.86 K, Mass density=649.65 kg/m3	896 kPa/K
520.05 K, Mass density=649.65 kg/m3	897 kPa/K
520.42 K, Mass density=649.65 kg/m3	899 kPa/K
521.54 K, Mass density=649.65 kg/m3	899 kPa/K
527.01 K, Mass density=649.65 kg/m3	915 kPa/K
527.03 K, Mass density=456.58 kg/m3	125 kPa/K
530.51 K, Mass density=552.58 kg/m3	130 kPa/K
530.67 K, Mass density=594.32 kg/m3	131 kPa/K
530.98 K, Mass density=476.25 kg/m3	129 kPa/K
534.1 K, Mass density=594.32 kg/m3	139 kPa/K
536.84 K, Mass density=540.25 kg/m3	135 kPa/K
537.29 K, Mass density=540.25 kg/m3	135 kPa/K
539.15 K, Mass density=594.32 kg/m3	145 kPa/K
539.88 K, Mass density=552.58 kg/m3	138 kPa/K
540.06 K, Mass density=476.25 kg/m3	137 kPa/K
540.79 K, Mass density=476.25 kg/m3	137 kPa/K
541.46 K, Mass density=594.32 kg/m3	152 kPa/K
541.53 K, Mass density=456.58 kg/m3	139 kPa/K
542.16 K, Mass density=594.32 kg/m3	153 kPa/K
544.61 K, Mass density=594.32 kg/m3	158 kPa/K
545.26 K, Mass density=594.32 kg/m3	161 kPa/K
546.16 K, Mass density=594.32 kg/m3	744 kPa/K
546.26 K, Mass density=594.32 kg/m3	736 kPa/K
548.44 K, Mass density=476.25 kg/m3	146 kPa/K
549.77 K, Mass density=594.32 kg/m3	742 kPa/K
550.79 K, Mass density=552.58 kg/m3	152 kPa/K
551.43 K, Mass density=552.58 kg/m3	154 kPa/K
552.99 K, Mass density=456.58 kg/m3	160 kPa/K
553.25 K, Mass density=456.58 kg/m3	154 kPa/K
553.7 K, Mass density=376.89 kg/m3	161 kPa/K
554.5 K, Mass density=552.58 kg/m3	156 kPa/K
555.04 K, Mass density=552.58 kg/m3	159 kPa/K
556.55 K, Mass density=540.25 kg/m3	159 kPa/K
556.9 K, Mass density=456.58 kg/m3	158 kPa/K
558.82 K, Mass density=552.58 kg/m3	167 kPa/K
559.36 K, Mass density=476.25 kg/m3	160 kPa/K
560.44 K, Mass density=552.58 kg/m3	171 kPa/K
562 K, Mass density=552.58 kg/m3	654 kPa/K
562.66 K, Mass density=540.25 kg/m3	177 kPa/K
563.63 K, Mass density=342.18 kg/m3	162 kPa/K
563.98 K, Mass density=540.25 kg/m3	181 kPa/K
564.69 K, Mass density=540.25 kg/m3	185 kPa/K
565.22 K, Mass density=540.25 kg/m3	186 kPa/K
565.31 K, Mass density=540.25 kg/m3	187 kPa/K
566.19 K, Mass density=540.25 kg/m3	611 kPa/K
566.98 K, Mass density=540.25 kg/m3	606 kPa/K
568.48 K, Mass density=456.58 kg/m3	174 kPa/K
570.03 K, Mass density=476.25 kg/m3	179 kPa/K
570.81 K, Mass density=476.25 kg/m3	182 kPa/K
571.02 K, Mass density=376.89 kg/m3	175 kPa/K
571.35 K, Mass density=476.25 kg/m3	183 kPa/K
571.99 K, Mass density=456.58 kg/m3	187 kPa/K
572.95 K, Mass density=540.25 kg/m3	618 kPa/K
574.99 K, Mass density=476.25 kg/m3	191 kPa/K
575.79 K, Mass density=476.25 kg/m3	191 kPa/K
575.93 K, Mass density=120.03 kg/m3	148 kPa/K
576.8 K, Mass density=147.43 kg/m3	154 kPa/K
578.55 K, Mass density=456.58 kg/m3	197 kPa/K
578.75 K, Mass density=540.25 kg/m3	632 kPa/K
579.5 K, Mass density=476.25 kg/m3	198 kPa/K
579.85 K, Mass density=456.58 kg/m3	204 kPa/K
580.18 K, Mass density=476.25 kg/m3	203 kPa/K and 452 kPa/K
580.65 K, Mass density=476.25 kg/m3	456 kPa/K
580.9 K, Mass density=329 kg/m3	185 kPa/K
581.27 K, Mass density=476.25 kg/m3	457 kPa/K
581.59 K, Mass density=342.18 kg/m3	192 kPa/K
581.68 K, Mass density=320.33 kg/m3	186 kPa/K
581.77 K, Mass density=456.58 kg/m3	198 kPa/K
582.01 K, Mass density=120.03 kg/m3	155 kPa/K
582.45 K, Mass density=308.35 kg/m3	190 kPa/K
582.46 K, Mass density=307.35 kg/m3	190 kPa/K
582.55 K, Mass density=312.91 kg/m3	189 kPa/K
582.99 K, Mass density=540.25 kg/m3	639 kPa/K
583.68 K, Mass density=456.58 kg/m3	203 kPa/K
583.77 K, Mass density=160.07 kg/m3	168 kPa/K
584.72 K, Mass density=456.58 kg/m3	202 kPa/K
584.81 K, Mass density=120.03 kg/m3	155 kPa/K
584.88 K, Mass density=476.25 kg/m3	473 kPa/K
584.95 K, Mass density=456.58 kg/m3	206 kPa/K and 410 kPa/K
585.31 K, Mass density=120.03 kg/m3	154 kPa/K and 128 kPa/K
585.68 K, Mass density=147.43 kg/m3	166 kPa/K
586.08 K, Mass density=120.03 kg/m3	100 kPa/K
586.37 K, Mass density=120.03 kg/m3	96 kPa/K
587.24 K, Mass density=456.58 kg/m3	416 kPa/K
589.66 K, Mass density=305.44 kg/m3	194 kPa/K
590.01 K, Mass density=297.6 kg/m3	191 kPa/K
590.09 K, Mass density=303.47 kg/m3	191 kPa/K
590.18 K, Mass density=342.18 kg/m3	198 kPa/K
590.18 K, Mass density=376.89 kg/m3	201 kPa/K
590.7 K, Mass density=309.95 kg/m3	203 kPa/K
591.04 K, Mass density=308.35 kg/m3	200 kPa/K
591.13 K, Mass density=301.94 kg/m3	196 kPa/K
591.13 K, Mass density=329 kg/m3	194 kPa/K
591.32 K, Mass density=376.89 kg/m3	202 kPa/K
591.47 K, Mass density=160.07 kg/m3	177 kPa/K
591.47 K, Mass density=299.79 kg/m3	190 kPa/K
591.47 K, Mass density=320.33 kg/m3	199 kPa/K
591.73 K, Mass density=376.89 kg/m3	202 kPa/K
592.08 K, Mass density=312.91 kg/m3	191 kPa/K
592.42 K, Mass density=147.43 kg/m3	176 kPa/K
592.68 K, Mass density=307.35 kg/m3	194 kPa/K
592.94 K, Mass density=188.05 kg/m3	184 kPa/K
593.2 K, Mass density=147.43 kg/m3	175 kPa/K
593.54 K, Mass density=311.19 kg/m3	197 kPa/K
593.89 K, Mass density=147.43 kg/m3	148 kPa/K
594.06 K, Mass density=376.89 kg/m3	206 kPa/K
594.14 K, Mass density=147.43 kg/m3	168 kPa/K and 141 kPa/K
